Earlier results in patent US20100068203A1, “17-Oxymacbecin Derivatives and Their Use in the Treatment of Cancer and/or B-Cell Malignancies” (priority 2006, published 2010).
Values belong to the compound of their own block, whether it stands above or below them.

Legend:
Hsp90 = Hsp90 (Homo sapiens, UniProt P07900)
SKBr3 = details: compared with geldanamycin and 17-AAG
[1] = biological target: terminal deoxynucleotidyl transferase (Homo sapiens, UniProt P04053)
bacteria and fungi = details: in vitro

Sequence of terminal deoxynucleotidyl transferase (P04053 whole entry, species assumed): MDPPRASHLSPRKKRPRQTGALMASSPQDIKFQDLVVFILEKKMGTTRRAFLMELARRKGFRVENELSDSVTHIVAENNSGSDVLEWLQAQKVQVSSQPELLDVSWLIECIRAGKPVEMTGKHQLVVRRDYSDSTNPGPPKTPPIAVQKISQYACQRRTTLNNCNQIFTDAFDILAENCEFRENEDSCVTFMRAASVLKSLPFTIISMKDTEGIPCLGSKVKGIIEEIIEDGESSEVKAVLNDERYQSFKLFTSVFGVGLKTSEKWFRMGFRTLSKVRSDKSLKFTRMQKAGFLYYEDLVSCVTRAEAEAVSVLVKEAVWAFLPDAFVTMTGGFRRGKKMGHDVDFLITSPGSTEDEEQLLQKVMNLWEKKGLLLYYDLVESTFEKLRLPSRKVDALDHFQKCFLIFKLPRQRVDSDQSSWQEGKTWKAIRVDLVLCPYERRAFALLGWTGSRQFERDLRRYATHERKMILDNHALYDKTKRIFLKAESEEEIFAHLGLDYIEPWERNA

binding affinity to Hsp90, greater than 17-AAG (Hsp90; relative to 17-AAG): 8 fold
binding affinity to Hsp90, greater than geldanamycin (Hsp90; relative to geldanamycin): 4 fold
IC50 measurement using SKBr3 (SKBr3): not reflected in an improvement
SMILES: CO[C@H]1C[C@H](C)Cc2cc(O)cc(c2)NC(=O)/C=C/CC[C@H](OC)[C@@H](OC(N)=O)/C(C)=C/[C@H](C)[C@H]1O [KOSN1559]

SMILES: CO[C@H]1[C@@H](OC)C[C@H](C)[C@@H](OC)C2=CC(=O)C=C(NC(=O)/C(C)=C/C=C\[C@H](C)[C@@H](OC(N)=O)/C(C)=C/[C@@H]1C)C2=O [macbecin]
Reverse transcriptase activity inhibition (Reverse transcriptase): not inhibited
terminal deoxynucleotidyl transferase activity inhibition [1]: not inhibited

SMILES: COC1=C2C[C@@H](C)C[C@H](OC)[C@H](O)[C@@H](C)/C=C(\C)[C@H](OC(N)=O)[C@@H](OC)/C=C\C=C(/C)C(=O)NC(=CC1=O)C2=O [geldanamycin]
activity in vitro against protozoa (protozoa): strong activity
activity against bacteria and fungi (bacteria and fungi): weak activity
